Paper PMC7097893 (ACS Omega, 2020)
*1 amine or outer side, *2 acyl side, *3 side chain or, on linkers, in order; H or OH if unused. Where a SMILES comes first, the peptide text is derived from it. Bridges are numbered along the chain shown (N, C = ends). Biphenyl(4,4'-CH2)2 = c1cc(-c2ccc(C[*:2])cc2)ccc1C[*:1]

Columns and labels:
[1] = circular dichroism; details: 10 mM Tris-HCl; pH 7; 25 °C; 50 uM
[2] = target: galectin-3 (Gal-3) carbohydrate-binding domain; details: read-out: Kd to Gal-3; cited from earlier work
[3] = format: physicochemical; details: pH 7
[4] = target: galectin-3 (Gal-3) (Homo sapiens, UniProt P17931); format: binding
Sequence of galectin-3 (Gal-3) (P17931 whole entry): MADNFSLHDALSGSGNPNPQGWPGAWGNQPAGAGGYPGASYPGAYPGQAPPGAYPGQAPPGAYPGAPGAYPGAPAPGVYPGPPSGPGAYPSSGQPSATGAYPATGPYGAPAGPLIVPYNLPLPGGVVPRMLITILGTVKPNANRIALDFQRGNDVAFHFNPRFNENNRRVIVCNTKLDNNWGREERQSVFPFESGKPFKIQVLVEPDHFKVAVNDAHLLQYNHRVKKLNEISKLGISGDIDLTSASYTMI

Compound: C[C@H](NC(=O)[C@H](CCCCN)NC(=O)[C@H](CCCCN)NC(=O)[C@@H]1CSCc2ccc(cc2)-c2ccc(cc2)CSC[C@H](NC(=O)[C@H](CCC(=O)O)NC(=O)[C@@H]2CCCN2C(=O)[C@H](C)NC(=O)CN)C(=O)N[C@@H](CCCCN)C(=O)N[C@@H](CCCNC(=N)N)C(=O)N[C@@H](CCCCN)C(=O)N[C@@H](CCC(=O)O)C(=O)N[C@@H](Cc2ccc(O)cc2)C(=O)N[C@@H](CCC(=O)O)C(=O)N1)C(=O)NCC(N)=O (H-GAPECKRKEYECKKAG-NH2; linker 5-12 via Biphenyl(4,4'-CH2)2)
- helicity [1]: 30%

Compound: C[C@H](NC(=O)CN)C(=O)N[C@@H](CCC(N)=O)C(=O)N[C@@H](CCC(=O)O)C(=O)N[C@H]1CSCc2ccc(cc2)-c2ccc(cc2)CSC[C@@H](C(=O)N[C@@H](CCCCN)C(=O)N[C@@H](CCCCN)C(=O)N[C@@H](C)C(=O)NCC(N)=O)NC(=O)[C@H](C)NC(=O)[C@@H]2CCCN2C(=O)[C@H](CCC(=O)O)NC(=O)[C@H](CCCCN)NC(=O)[C@@H]2CCCN2C(=O)[C@@H]2CCCN2C1=O (H-GAQECPPKEPACKKAG-NH2; linker 5-12 via Biphenyl(4,4'-CH2)2)
- helicity [1]: 14%

Compound: CC(C)[C@@H]1NC(=O)[C@@H](NC(=O)[C@H](CCC(=O)O)NC(=O)[C@H](CCC(N)=O)NC(=O)[C@H](C)NC(=O)CN)CSCc2ccc(cc2)-c2ccc(cc2)CSC[C@@H](C(=O)N[C@@H](CCCCN)C(=O)N[C@@H](CO)C(=O)N[C@@H](C)C(=O)NCC(N)=O)NC(=O)[C@H](CO)NC(=O)[C@H](CCC(N)=O)NC(=O)[C@H](CCC(=O)O)NC(=O)[C@H](CCCCN)NC(=O)[C@H](Cc2ccc(O)cc2)NC1=O (H-GAQECVYKEQSCKSAG-NH2; linker 5-12 via Biphenyl(4,4'-CH2)2)
- helicity [1]: 32%

Compound: CC(=O)N[C@H]1C(O)O[C@H](CO)[C@@H](O[C@@H]2O[C@H](CO)[C@H](O)[C@H](O)[C@H]2O)[C@@H]1O (some centres unmarked) [N-acetyllactosamine]
- Kd [2]: 200 µM

Compound: H-GAAECAAKEAACKAAG-NH2 [control]
- helicity (α-helical content) [3]: 3.4%

Compound: H-GAPECKRKEYECKKAG-GGGK-(flu)-NH2 [p10-flu]
- Gal-3 binding of non-stapled peptide (fluorescent intensity change) [4]: did not show any Gal-3 binding

Compound: H-GAQECPPKEPACKKAG-GGGK-(flu)-NH2 (sidechain bridge or staple) [p8-flu-BP]
- effect of excess lactose on fluorescent intensity change with Gal-3 [4]: did not significantly affect

Compound: H-GAQECVYKEQSCKSAG-GGGK-(flu)-NH2 [p4-flu]
- Gal-3 binding of non-stapled peptide (fluorescent intensity change) [4]: did not show significant fluorescent changes
